Results published in the NIST ThermoML archive (doi:10.1016/j.jct.2006.02.001).

Key:
[1] = xn = mol fraction of the nth substance listed; conditions: 101 kPa, Liquid
[2] = refractive index (Na D-line) (dimensionless); xn = mol fraction of the nth substance listed; conditions: 101 kPa, Liquid

COc1ccccc1 [anisole] + Cc1cccc(C)c1
Conditions | mass density, 288.15 K [kg/m3] | mass density, 293.15 K [kg/m3] | mass density, 298.15 K [kg/m3] | mass density, 303.15 K [kg/m3] | refractive index, 288.15 K | refractive index, 293.15 K | refractive index, 298.15 K | refractive index, 303.15 K
[1], x1 = 0.1006 | 880.54 | 876.26 | 872.02 | 867.67 | – | – | – | –
[1], x1 = 0.2463 | 898.41 | 894.1 | 889.76 | 885.42 | – | – | – | –
[1], x1 = 0.3753 | 914.55 | 910.2 | 905.8 | 901.39 | – | – | – | –
[1], x1 = 0.496 | 930.02 | 925.62 | 921.19 | 916.71 | – | – | – | –
[1], x1 = 0.6398 | 948.95 | 944.45 | 940.02 | 935.48 | – | – | – | –
[1], x1 = 0.7468 | 963.38 | 958.8 | 954.36 | 949.8 | – | – | – | –
[1], x1 = 0.8284 | 974.53 | 969.91 | 965.45 | 960.86 | – | – | – | –
[1], x1 = 0.9034 | 984.93 | 980.26 | 975.77 | 971.13 | – | – | – | –
[1], x1 = 0.9613 | 993.02 | 988.29 | 983.78 | 979.08 | – | – | – | –
[1], x1 = 1 | 998.44 | 993.65 | 989.15 | 984.37 | – | – | – | –
[2], x1 = 0.1006 | – | – | – | – | 1.5021 | 1.4992 | 1.4963 | 1.4944
[2], x1 = 0.2463 | – | – | – | – | 1.5055 | 1.5018 | 1.499 | 1.497
[2], x1 = 0.3753 | – | – | – | – | 1.5086 | 1.5042 | 1.5013 | 1.4993
[2], x1 = 0.496 | – | – | – | – | 1.5117 | 1.5065 | 1.5037 | 1.5016
[2], x1 = 0.6398 | – | – | – | – | 1.5155 | 1.5093 | 1.5065 | 1.5044
[2], x1 = 0.7468 | – | – | – | – | 1.5184 | 1.5115 | 1.5088 | 1.5066
[2], x1 = 0.8284 | – | – | – | – | 1.5206 | 1.5132 | 1.5104 | 1.5082
[2], x1 = 0.9034 | – | – | – | – | 1.5228 | 1.5149 | 1.5121 | 1.5098
[2], x1 = 0.9613 | – | – | – | – | 1.5244 | 1.5161 | 1.5133 | 1.511
[2], x1 = 1 | – | – | – | – | 1.5256 | 1.5169 | 1.5141 | 1.5117

COc1ccccc1 [anisole] + Cc1ccccc1
Conditions | mass density, 288.15 K [kg/m3] | mass density, 293.15 K [kg/m3] | mass density, 298.15 K [kg/m3] | mass density, 303.15 K [kg/m3] | refractive index, 288.15 K | refractive index, 293.15 K | refractive index, 298.15 K | refractive index, 303.15 K
[1], x1 = 0.1179 | 887.1 | 882.58 | 877.96 | 873.25 | – | – | – | –
[1], x1 = 0.2098 | 899.23 | 894.67 | 890.04 | 885.33 | – | – | – | –
[1], x1 = 0.3078 | 912.01 | 907.42 | 902.81 | 898.06 | – | – | – | –
[1], x1 = 0.4082 | 924.96 | 920.33 | 915.72 | 910.95 | – | – | – | –
[1], x1 = 0.5157 | 938.67 | 934.03 | 929.43 | 924.67 | – | – | – | –
[1], x1 = 0.6172 | 951.49 | 946.82 | 942.24 | 937.46 | – | – | – | –
[1], x1 = 0.7286 | 965.32 | 960.65 | 956.15 | 951.37 | – | – | – | –
[1], x1 = 0.8575 | 981.16 | 976.45 | 971.96 | 967.26 | – | – | – | –
[1], x1 = 0.917 | 988.36 | 983.65 | 979.17 | 974.46 | – | – | – | –
[1], x1 = 1 | 998.44 | 993.65 | 989.15 | 984.37 | – | – | – | –
[2], x1 = 0.1179 | – | – | – | – | 1.503 | 1.4997 | 1.4971 | 1.4946
[2], x1 = 0.2098 | – | – | – | – | 1.5056 | 1.5017 | 1.4992 | 1.4966
[2], x1 = 0.3078 | – | – | – | – | 1.5083 | 1.5038 | 1.5012 | 1.4987
[2], x1 = 0.4082 | – | – | – | – | 1.511 | 1.5059 | 1.5033 | 1.5008
[2], x1 = 0.5157 | – | – | – | – | 1.5138 | 1.5081 | 1.5054 | 1.5029
[2], x1 = 0.6172 | – | – | – | – | 1.5163 | 1.5099 | 1.5061 | 1.5049
[2], x1 = 0.7286 | – | – | – | – | 1.5192 | 1.5122 | 1.5095 | 1.5071
[2], x1 = 0.8575 | – | – | – | – | 1.5223 | 1.5145 | 1.5118 | 1.5094
[2], x1 = 0.917 | – | – | – | – | 1.5236 | 1.5155 | 1.5135 | 1.5104
[2], x1 = 1 | – | – | – | – | 1.5256 | 1.5169 | 1.5141 | 1.5117

COc1ccccc1 [anisole] + Cc1ccccc1C
Conditions | mass density, 288.15 K [kg/m3] | mass density, 293.15 K [kg/m3] | mass density, 298.15 K [kg/m3] | mass density, 303.15 K [kg/m3] | refractive index, 288.15 K | refractive index, 293.15 K | refractive index, 298.15 K | refractive index, 303.15 K
[1], x1 = 0.0984 | 894.18 | 890.01 | 886.52 | 881.84 | – | – | – | –
[1], x1 = 0.2473 | 910.8 | 906.56 | 902.92 | 898.24 | – | – | – | –
[1], x1 = 0.376 | 925.35 | 921 | 917.17 | 912.46 | – | – | – | –
[1], x1 = 0.4951 | 939.01 | 934.55 | 930.58 | 925.89 | – | – | – | –
[1], x1 = 0.6454 | 956.51 | 951.98 | 947.89 | 943.26 | – | – | – | –
[1], x1 = 0.7463 | 968.37 | 963.81 | 959.66 | 955.11 | – | – | – | –
[1], x1 = 0.864 | 982.31 | 977.72 | 973.49 | 968.92 | – | – | – | –
[1], x1 = 0.938 | 991.11 | 986.44 | 982.08 | 977.48 | – | – | – | –
[1], x1 = 0.9745 | 995.42 | 990.69 | 986.24 | 981.57 | – | – | – | –
[1], x1 = 1 | 998.44 | 993.65 | 989.15 | 984.37 | – | – | – | –
[2], x1 = 0.0984 | – | – | – | – | 1.5091 | 1.5061 | 1.5033 | 1.5015
[2], x1 = 0.2473 | – | – | – | – | 1.5118 | 1.508 | 1.5052 | 1.5027
[2], x1 = 0.376 | – | – | – | – | 1.5141 | 1.5095 | 1.5067 | 1.5048
[2], x1 = 0.4951 | – | – | – | – | 1.516 | 1.5107 | 1.5079 | 1.5059
[2], x1 = 0.6454 | – | – | – | – | 1.5193 | 1.5128 | 1.51 | 1.508
[2], x1 = 0.7463 | – | – | – | – | 1.521 | 1.5145 | 1.5117 | 1.5096
[2], x1 = 0.864 | – | – | – | – | 1.5232 | 1.5156 | 1.5128 | 1.5107
[2], x1 = 0.938 | – | – | – | – | 1.5245 | 1.5164 | 1.5136 | 1.5114
[2], x1 = 0.9745 | – | – | – | – | 1.5252 | 1.5167 | 1.5139 | 1.5116
[2], x1 = 1 | – | – | – | – | 1.5256 | 1.5169 | 1.5141 | 1.5117
